Assay results published in patent US8604003B2, “Promoter for hard tissue formation” (Seikagaku Corporation, priority 2005, dated 2013).
“Also recorded” adds a separate entry of the source.

What was measured:
cell strain MC3T3-E1 [1] = test: Cellular ALP activity (Bessey-Lowry method), 2% FBS-containing αMEM; format: cell-based, mouse; conditions: 50 μg/ml sample, first week after confluence, vs control without sample (FIG. 1, FIG. 2)
Method: (§1) A mouse bone marrow-derived mesenchymal cell strain, ST2 cell strain, and a mouse osteoblast-like cell strain having more high differentiation degree, MC3T3-E1 cell strain, (both obtained from RIKEN CELL BANK), were used. In the following, culturing of these cells was carried out all under a condition of 37° C. and 5% CO2. Additionally, antibiotics (100 U/ml in final concentration of penicillin G, 100 μg/ml in final concentration of streptomycin and 250 μg/ml in final concentration of gentamicin) were allowed to coexist in all of the media to be used for the culturing of these cells.
(§2) Cellular ALP activity was measured as the index of cell differentiation. Cells were inoculated onto a 24 well culture plate at a density of 5×10^3 cells/well and cultured by adding 50 μg/ml in final concentration of each sample to 2% FBS-containing αMEM. On the first week after the cells reached confluent, ALP activity was measured by the following enzymologic method (Bessey-Lowry method).
(§3) After washing the cultured cells with PBS, the cells were disrupted and stirred for 40 seconds in 10 mM Tris-HCl buffer (pH 7.4, 500 μl) using an ultra sonic homogenizer (Handy Sonic model UR-20P; mfd. by Tomy Seiko Co., Ltd.). Next, 25 μl of the sample liquid was added to 125 μl of an ALP buffer (0.1M carbonate buffer pH 9.8, 6.7 mM p-nitrophenyl phosphate, 2 mM MgCl2) and incubated at 37° C. for 30 minutes. After terminating the reaction by adding 125 μL of 0.2 N NaOH, the absorbance at 405 nm was measured by using a microplate reader (Model 550, manufactured by Bio-Rad Laboratories). The calculated ALP activity was shown by unit per the number of cells. Additionally, a case in which the sample to be tested was not added was used as a control.
(§4) The results in which each sample to be tested was added to the cell strain MC3T3-E1 are shown in FIG. 1, and the results in which a sample to be tested (Hep, 2DSH, 6DSH or NDSH) was added to the cell strain MC3T3-E1 are shown in FIG. 2, and the results in which a sample to be tested (Hep, 2DSH, 6DSH or NDSH) was added to the cell strain ST2 are shown in FIG. 3, respectively.

cell strain ST2 [2] = test: as above; format: cell-based, mouse; conditions: 50 μg/ml sample, first week after confluence, vs control without sample (FIG. 3)
Method: as §1, §2, §3, §4

cell strain MC3T3-E1 [3] = test: Cellular ALP activity, serum-free medium; format: cell-based, mouse; conditions: 50 μg/ml sample, serum-free medium (FIG. 4)
Method: as §1
(§5) Cellular ALP activity was measured as the index of cell differentiation. […] On the first week after the cells reached confluent, ALP activity was measured by the following enzymologic method (Bessey-Lowry method).
as §3
(§6) The results of adding each sample to be tested (Hep, 2DSH, 6DSH or NDSH) to the cell strain MC3T3-E1 are shown in FIG. 4, and the results of adding each sample to be tested (Hep, 2DSH, 6DSH or NDSH) to the cell strain ST2 are shown in FIG. 5, respectively. In this connection, the calculated ALP activity was shown by a numerical value of cells per DNA weight.

cell strain ST2 [4] = test: Cellular ALP activity, serum-free medium; format: cell-based, mouse; conditions: 50 μg/ml sample, serum-free medium (FIG. 5)
Method: as §1, §5, §3, §6

cell strain MC3T3-E1 [5] = test: Calcification ability, alizarin staining; format: cell-based, mouse; conditions: MC3T3-E1, 50 μg/ml sample, first week after confluence
Method: as §2
(§7) In order to examine calcification ability of the cells, alizarin staining (ALZ staining; stained in red indicates accelerated calcification) was carried out in accordance with the usual way, in the aforementioned “Actions on cell differentiation (1)” on the first week after the cells reached confluent. The cells were washed with PBS, fixed with 10 neutral-buffered formalin and then stained with 0.01 Alizarin Red S (manufactured by Wako Pure Chemical Industries).

cell strain ST2 [6] = test: Calcification ability, alizarin staining; format: cell-based, mouse; conditions: ST2, 50 μg/ml sample, first week after confluence
Method: as §2, §7

Wistar rat [7] = test: Transplantation under the cranial periosteum on hydroxyapatite carrier, HE staining, formation of hard tissue (bone); format: in vivo; conditions: 3 mg/ml sample on hydroxyapatite under cranial periosteum, fourth and eighth week
Method: (§8) A Wistar rat of 8 weeks of age was subjected to general anesthesia with ethyl carbamate 20 solution at a dose of 0.5 ml per 100 g body weight, and then the forehead skin and periosteum were incised. Each sample to be tested (Hep, 2DSH, 6DSH or NDSH; 100 μl for each) diluted to a concentration of 3 mg/ml with PBS was transplanted under the cranial periosteum. In this case, hydroxyapatite was used as the carrier.
(§9) Specifically, a block of hydroxyapatite (size: 3 mm in length×2 mm in breadth×2 mm in height; adsorbs about 0.1 ml of solution) was soaked for 30 minutes in each sample to be tested of a concentration of 3 mg/ml. It was used for the transplantation.
A substance in which test sample-free PBS was used was used as the control.
Each animal was sacrificed on the fourth week and eighth week after transplantation of the sample to be tested. Then slices of the transplanted parts were prepared and subjected to hematoxylin-eosin staining (HE staining). It was observed under an optical microscope to evaluate degree of the formation of a hard tissue (bone).

Wistar rat [8] = test: Transplantation under the cranial periosteum, ratio of area of formed bone to hydroxyapatite region (image analysis); format: in vivo; conditions: 3 mg/ml sample on hydroxyapatite, fourth week and sixth week (FIG. 6)
Method: as §8, §9
In the same manner as in the aforementioned “5. Actions on cell differentiation (5)”, slices of the transplanted parts were prepared by sacrificing each animal on the fourth week and sixth week after transplantation of the sample to be tested (n=2 for each group). Ratio of the area of formed bone (hard tissue) to the area of the hydroxyapatite region observed in the image of said slice was analyzed by using an image analyzing software (Scion image; Scion Corporation).

Wistar rat [9] = test: Transplantation under the cranial periosteum, ratio of area of bone tissue to total tissues (image analysis); format: in vivo; conditions: 3 mg/ml sample on hydroxyapatite, fourth, eighth and twelfth week (FIG. 7)
Method: as §8, §9
In the same manner as in the aforementioned “5. Actions on cell differentiation (5)”, slices of the transplanted parts were prepared by sacrificing each animal on the fourth week, eighth week and twelfth week after transplantation of the sample to be tested (n=5 for each group). Ratio of the area of bone tissue to the area of the total tissues observed in the image of the slices of transplanted region was analyzed using an image analyzing software (Scion image; Scion Corporation). In this connection, the bars of respective weeks in FIG. 7 show the results in the control group, 2DSH group, 6DSH group, NDSH group and Hep group, respectively, starting from the left side.

cell strain MC3T3-E1 [10] = test: Actions on cell growth, cell number by Coulter counter; format: cell-based, mouse; conditions: 50 μg/ml sample, αMEM containing 2% FBS, days 0, 1, 3, 6 (FIG. 8)
Method: (§10) Respective cells were inoculated onto a 24 well culture plate (manufactured by Falcon) in 5×10^3 cells/well portions. Starting on the first day after the inoculation, each sample to be tested (Hep, 2DSH, 6DSH or NDSH) was added to the culture liquid (αMEM containing 2% FBS) to a final concentration of 50 μg/ml. On the zero day, first day, third day and sixth day after addition of the sample to be tested, the number of cells was counted using a Coulter counter (COULTER Z1, manufactured by Coulter Electronics Inc.). A case in which the sample to be tested was not added was used as the control.

cell strain ST2 [11] = test: as above; format: cell-based, mouse; conditions: 50 μg/ml sample, αMEM containing 2% FBS, days 0, 1, 3, 6 (FIG. 9)
Method: as §10

Row | Substance | ALP activity of the cell strain MC3T3-E1 (cell strain MC3T3-E1 [1]) | ALP activity of the cell strain ST2 (cell strain ST2 [2]) | ALP activity of the cell strain MC3T3-E1 under the serum-free condition (cell strain MC3T3-E1 [3]) | ALP activity of the cell strain ST2 under the serum-free condition (cell strain ST2 [4]) | formation of calcification matter (alizarin staining) (cell strain MC3T3-E1 [5]) | formation of calcification matter (alizarin staining) (cell strain ST2 [6]) | formation of bone (HE staining, optical microscope) (Wistar rat [7]) | ratio of the area of formed bone (hard tissue) to the area of the hydroxyapatite region (Wistar rat [8]) | ratio of the area of bone tissue to the area of the total tissues (Wistar rat [9]) | growth of the cell strain MC3T3-E1 (number of cells) (cell strain MC3T3-E1 [10]) | growth of the cell strain ST2 (number of cells) (cell strain ST2 [11])
1 | 2-O-desulfated heparin [2DSH] | increased the ALP activity | increased the ALP activity | increased the ALP activity; also recorded: particularly effective | increased the ALP activity; also recorded: particularly effective | accelerated formation of calcification matter | accelerated formation of calcification matter; also recorded: strong acceleration | formation of bone was observed; also recorded: Remarkable bone formation | formation of bone (hard tissue) was confirmed within a broad range; also recorded: remarkable | formation of bone (hard tissue) was confirmed within a broad range; also recorded: remarkable | small in comparison with that of Hep; also recorded: suppress growth | accelerated growth
2 | 6-O-desulfated heparin [6DSH] | increased the ALP activity | increased the ALP activity | increased the ALP activity | increased the ALP activity | accelerated formation of calcification matter | accelerated formation of calcification matter | formation of bone was observed | formation of bone (hard tissue) was confirmed within a broad range | formation of bone (hard tissue) was confirmed within a broad range | small in comparison with that of Hep; also recorded: suppress growth | –
3 | heparin [reference compound] | increased the ALP activity; also recorded: particularly effective | increased the ALP activity | increased the ALP activity; also recorded: particularly effective | increased the ALP activity | accelerated formation of calcification matter | accelerated formation of calcification matter; also recorded: strong acceleration | formation of bone was observed | formation of bone (hard tissue) was confirmed within a broad range | formation of bone (hard tissue) was confirmed within a broad range; also recorded: remarkable | suppress growth | suppressed it
4 | N-desulfated heparin [NDSH] | increased the ALP activity | increased the ALP activity; also recorded: particularly effective | increased the ALP activity; also recorded: particularly effective | increased the ALP activity | accelerated formation of calcification matter | accelerated formation of calcification matter; also recorded: strong acceleration | formation of bone was observed | formation of bone (hard tissue) was confirmed within a broad range; also recorded: remarkable | formation of bone (hard tissue) was confirmed within a broad range; also recorded: remarkable | small in comparison with that of Hep; also recorded: suppress growth | –
